# Laboratory results published in US6245917A, “Crystalline sodium phenytoin monohydrate” (Warner-Lambert Company, priority 1999, dated 2001).
# What was measured:
# [1] = DSC and TGA thermal analyses; format: physicochemical
# Experimental: Differential scanning calorimetry (DSC) experiments were performed on a Dupont DSC 2000 and thermogravimetric analyses (TGA) were performed on a Dupont TGA 2000. Nitrogen was used as the purge gas and heating rates were 10° C./minute. Standards were run prior to sample analyses; Sn for DSC and calcium oxalate for TGA.
# Both SPM and SPA were analyzed by x-ray powder diffraction (XRPD), infrared (IR) spectroscopy, solid-state nuclear magnetic resonance (SSNMR) spectroscopy, differential scanning calorimetry (DSC) and thermogravimetric analysis (TGA). The XRPD patterns of SPM and SPA are quite different and distinguishable. While the IR and SSNMR spectra of SPM and SPA are different, the differences are subtle. SPM and SPA behave quite differently on both DSC and TGA thermal analyses. SPA undergoes endothermic transitions at 364° C. and 409° C. that are accompanied by a weight loss of 72%.
# [2] = Intrinsic dissolution in 90% ethanol/10% water; format: physicochemical; conditions: for concentration, average: average of runs
# Experimental: Dissolutions were carried out in a standard Van-Kel dissolution bath. The medium was either water, 90% water/10% ethanol, or 95% water/5% ethanol. For nonintrinsic dissolution experiments, SPM and SPA powders were sieved and fractions that passed through a 75 μm sieve were used. For intrinsic dissolution experiments, tablets were prepared in a standard Woods apparatus by compression of 400 mg of material at 3000 psig for 1 minute.
# Each experiment was carried out by placing 900 mL of medium into one of the Van-Kel dissolution vessels and allowing it to equilibrate at 37° C. The test materials were added (powder or tablet) and samples were withdrawn by syringe at the specified times (see Table 4). Each sample was filtered through a 0.2μ nylon syringe filter. Three dissolution experiments were carried out for each lot of suspension.
# For intrinsic dissolution experiments, the test material is compressed into a tablet and the tablet (still in the die) is lowered into the dissolution medium. In this way, a consistent surface area, the tablet face, is presented to the medium. […] Therefore, tablets of SPM and SPA were prepared, removed from the die, crushed into powders, and examined by XRPD.
# Intrinsic dissolution experiments were then carried out in 90% ethanol/10% water. The tablets dissolved very quickly in this medium, resulting in rapid deformation of the tablet faces. Occasionally pieces of solid broke free of the tablets and sank to the bottom of the dissolution vessel. Within 15-40 minutes the tablets had dissolved completely. Because of this behavior, consistent surface areas were not maintained during the course of the experiments. The result was a high degree of imprecision in the concentrations measured (Table 6).
# Samples were analyzed by high-performance liquid chromatography (HPLC) on a BAS 480 HPLC system equipped with a UV/VIS detector and a TSP AS 100 autosampler, and controlled with INJECT software. A Phenomenex Hypersil C18 BDS column (5μ particle size, 4.6×150 mm) was used. The mobile phase was prepared by mixing water, methanol, and acetic acid in a 60:40:0.5 volume ratio. Analyses were carried out at a flow rate of 1 mL/minute with the UV/VIS detector set at 254 nm. The injection volume was 5 μL.
# A standard solution consisting of 74.8 μg/mL of sodium phenytoin in mobile phase was injected three times before and three times after each series of analyses. Each unknown sample was injected three times without dilution. The peak areas at 254 nm were recorded and averaged for each time point. The amount of sodium phenytoin in solution at each time point was calculated from the line equation of the calibration curve: […]
smiles,measurement,setting,value
"O=C1NC(=O)C(c2ccccc2)(c2ccccc2)N1 [SPA, sodium phenytoin anhydrate, reference compound]",weight loss accompanying the endothermic transitions,"[1]; TGA, transitions at 364° C. and 409° C.",72%
same,"concentration, Run 1",[2]; 1 min,1730 ng/mL
same,"concentration, Run 2",[2]; 1 min,1680 ng/mL
same,"concentration, Run 3",[2]; 1 min,3360 ng/mL
same,"concentration, average",[2]; 1 min,2260 ng/mL
same,"concentration, Run 1",[2]; 5 min,11710 ng/mL
same,"concentration, Run 2",[2]; 5 min,12240 ng/mL
same,"concentration, Run 3",[2]; 5 min,19910 ng/mL
same,"concentration, average",[2]; 5 min,14620 ng/mL
same,"concentration, Run 1",[2]; 10 min,23270 ng/mL
same,"concentration, Run 2",[2]; 10 min,23840 ng/mL
same,"concentration, Run 3",[2]; 10 min,57430 ng/mL
same,"concentration, average",[2]; 10 min,34840 ng/mL
same,"concentration, Run 1",[2]; 20 min,47050 ng/mL
same,"concentration, Run 2",[2]; 20 min,60830 ng/mL
same,"concentration, Run 3",[2]; 20 min,144620 ng/mL
same,"concentration, average",[2]; 20 min,87170 ng/mL
same,"concentration, Run 1",[2]; 40 min,112230 ng/mL
same,"concentration, Run 2",[2]; 40 min,139740 ng/mL
same,"concentration, Run 3",[2]; 40 min,193120 ng/mL
same,"concentration, average",[2]; 40 min,148360 ng/mL
"O=C1NC(=O)C(c2ccccc2)(c2ccccc2)N1 [SPM, sodium phenytoin monohydrate]",endothermic transition temperature,"[1]; DSC, nitrogen, 10° C./minute, monohydrate",about 65 °C
same,weight loss accompanying the low-temperature endothermic transition,"[1]; TGA, transition at about 65° C.",5%
same,"concentration, average","[2]; 1 min, monohydrate",3300 ng/mL
same,"concentration, Run 1","[2]; 1 min, monohydrate",2420 ng/mL
same,"concentration, Run 2","[2]; 1 min, monohydrate",2210 ng/mL
same,"concentration, Run 3","[2]; 1 min, monohydrate",5260 ng/mL
same,time to complete dissolution of tablets,[2]; 90% ethanol/10% water,15 to 40 min
same,dissolution rate relative to SPA,"[2]; 90% ethanol/10% water, high degree of imprecision",dissolves more rapidly than does SPA
same,"concentration, average","[2]; 5 min, monohydrate",39460 ng/mL
same,"concentration, Run 1","[2]; 5 min, monohydrate",44780 ng/mL
same,"concentration, Run 2","[2]; 5 min, monohydrate",25240 ng/mL
same,"concentration, Run 3","[2]; 5 min, monohydrate",48380 ng/mL
same,"concentration, average","[2]; 10 min, monohydrate",92380 ng/mL
same,"concentration, Run 1","[2]; 10 min, monohydrate",99180 ng/mL
same,"concentration, Run 2","[2]; 10 min, monohydrate",70050 ng/mL
same,"concentration, Run 3","[2]; 10 min, monohydrate",107910 ng/mL
same,"concentration, Run 2",[2]; 15 min,120280 ng/mL
same,"concentration, Run 3",[2]; 15 min,153220 ng/mL
same,"concentration, average",[2]; 15 min,136750 ng/mL
same,"concentration, average","[2]; 20 min, monohydrate",166110 ng/mL
same,"concentration, Run 1","[2]; 20 min, monohydrate",166110 ng/mL
